This experiment concerns the target Replicase polyprotein 1ab (Severe acute respiratory syndrome coronavirus 2, UniProt P0DTD1). The experiment is described as follows: Inhibition of SARS-CoV-2 PLpro using Z-RLRGG-AMC as substrate preincubated for 30 mins followed by substrate addition and measured after 60 mins by SpectraMax microplate reader analysis.

Each structure is given as a SMILES string.

From ChEMBL document CHEMBL6127149, “Novel Papain-Like Protease Inhibitors for Treating Viral Infections, in Particular Coronavirus Infections” (ACS Med Chem Lett, 2024) come the findings set out here.

The IC50 is the point on the concentration scale where inhibition reaches its midpoint. A higher IC50 goes with lower potency. For `CCOC(=O)[C@H]1O[C@@H]1C(=O)NNC(=O)CCc1ccccc1C(=O)N[C@H](N)c1cc(-c2cnn(C)c2)nc2ccccc12`, the IC50 turned out to be 2 nM.
The compound `CCOC(=O)[C@@H]1O[C@H]1C(=O)NNC(=O)CCc1ccccc1C(=O)N[C@H](N)c1cc(-c2cnn(C)c2)nc2ccccc12` gave an IC50 of 2 nM.
Turning to `Cn1cc(-c2cc([C@@H](N)NC(=O)c3ccccc3CCC(=O)NNC(=O)[C@H]3O[C@@H]3C(=O)O)c3ccccc3n2)cn1`, the concentration for half-maximal inhibition (IC50) was 1 nM.
Turning to `COC(=O)[C@H]1O[C@@H]1C(=O)NNC(=O)CCc1ccccc1C(=O)N[C@H](N)c1cc(-c2cnn(C)c2)nc2ccccc12`, half-maximal inhibition (IC50) required 2 nM.
